Measurements taken from patent EP3049422B1, “INTUMESCENT COATINGS” (MIPA SE, priority 2013, dated 2015).
Where two headings read alike, the source gives them in different places.

Assay: Water solubility of the salts
Format: physicochemical
From the text: Organische Lösungsmittel tragen zur Umweltverschmutzung bei und deshalb ist es wünschenswert, Wasser als Basis für Reaktionen oder auch Lacke zu verwenden. […] Wir beobachteten, dass vor allem die Kombination mit Alkalimetallen zu einer sehr guten Löslichkeit führte.
Ein wichtiges Kriterium für die Auswahl der Substanzen für eingehendere Studien, war deren Wasserlöslichkeit. Ausgeschlossen wurden vor allem Verbindungen, die höhere Kationen als die Alkalimetalle enthalten, da diese nur sehr schlecht löslich sind. Trotzdem wurde zumindest für zwei wasserunlösliche Salze versucht, sie als Suspensionen aufzubringen. Ausgewählt wurden dafür ALDA und Calcium(II)hydantoinat.

| Compound | Wasser löslich | Wasserlöslichkeit (in words) | Wasserlöslichkeit |
| --- | --- | --- | --- |
| O=C1CN(CN2CC(=O)NC2=O)C(=O)N1 [1,1'-(Methylen) bishydantoin Kalium, Kalium(I)N,N'-methylenbishydantoinat] | + |  |  |
| NC(=O)NC1NC(=O)NC1=O (stereo not shown) [Allantoin Natrium, Natrium(I)allantoinat] | + |  |  |
| Dihydroxyaluminiumallantoinat [Allantoin Al(OH)2*, reference compound] | - | wasserunlösliche |  |
| CC(N1CC(=O)NC1=O)N1CC(=O)NC1=O [1,1'-(Methylmethylen) bishydantoin Calcium] [Calcium(II)N,N'-(methylmethylen)bishydantoinat] | + |  |  |
| O=C1CNC(=O)N1 [Hydantoin Natrium, Natrium(I)hydantoinat] | + |  |  |
| Tetrakis(hydroxymethyl)phosphoniumhydantoinat | + |  |  |
| O=C1CNC(=O)N1 [Hydantoin Calcium, Calcium(II)hydantoinat] | - | wasserunlösliche |  |
| O=C1CNC(=O)N1 [Hydantoin Kalium, Kalium(I)hydantoinat] | + |  |  |
| O=C1CNC(=O)N1 [Hydantoin Tetramethylammonium, Tetramethylammoniumhydantoinat] | + |  |  |
| O=C1CN(CN2CC(=O)[N-]C2=O)C(=O)[N-]1.OC[P+](CO)(CO)CO.OC[P+](CO)(CO)CO [Bis[tetrakis(hydroxymethyl)phosphonium]N,N'-methylenbishydantoinat] | + |  |  |
| NC(=O)NC1NC(=O)NC1=O (stereo not shown) [Allantoin, reference compound] |  |  | schlecht wasserlöslich |
| O=C1CN(CN2CC(=O)NC2=O)C(=O)N1 [1,1'-(Methylen) bishydantoin Natrium, Natrium(I)N,N'-methylenbishydantoinat] | + |  |  |
| CC(N1CC(=O)NC1=O)N1CC(=O)NC1=O [1,1'-(Methylmethylen) bishydantoin Kalium] [Kalium(I)N,N'-(methylmethylen)bishydantoinat] | + |  |  |
| CC(N1CC(=O)NC1=O)N1CC(=O)NC1=O [1,1'-(Methylmethylen) bishydantoin Natrium] [Natrium(I)N,N'-(methylmethylen)bishydantoinat] | + |  |  |
| NC(=O)NC1NC(=O)NC1=O (stereo not shown) [Allantoin Kalium, Kalium(I)allantoinat] | + |  |  |
| O=C1CNC(=O)N1 [Hydantoin, reference compound] |  | schlecht wasserlöslich |  |
| NC(=O)NC1NC(=O)NC1=O (stereo not shown) [Allantoin Calcium, Calcium(II)allantoinat] | + |  |  |
